Tests used:
[1] = target: human Janus kinase 1 (JAK1), recombinant catalytic domain (Homo sapiens (Human), UniProt P23458); test: LanthaScreen TR-FRET enzymatic assay, JAK1; type: biochemical; conditions: 1 mM ATP, GFP-STAT1 substrate, read-out: Inhibitory Activity IC50 JAK1
Protocol: (§1) The in vitro inhibition of recombinant human JAKs was determined as follow.
(§2) Compounds were tested in LANTHASCREEN™ time-resolved fluorescence energy transfer (TR-FRET) enzymatic assays from Invitrogen. The human Janus kinase 1 (JAK1) used in the assay is the recombinant JAK1 catalytic domain (amino acids 866-1154) expressed and purified from insect cells (Invitrogen, Cat. No. PV4774). The human Janus kinase 2 (JAK2) used in the assay is the recombinant JAK2 catalytic domain (amino acids 808-1132) expressed and purified from insect cells (Invitrogen, Cat. No. PV4210). The human Janus kinase 3 (JAK3) used in the assay is the recombinant JAK3 catalytic domain (amino acids 781-1124) expressed and purified from insect cells (Invitrogen, Cat. No. PV3855). The human tyrosine kinase 2 (TYK2) used in the assay is the recombinant TYK2 catalytic domain (amino acids 833-1187) expressed and purified from insect cells (Invitrogen, Cat. No. PV4790). The substrate is a recombinant STAT1 expressed as a fusion with GFP (Green Fluorescent Protein) to act as a physiological substrate (Invitrogen, Cat. No. PV5211).
(§3) Test compounds were prepared and diluted in DMSO in 3-fold serial dilutions for 10 doses to 100× of the final testing concentrations. The compounds were then further diluted to 4× by the kinase reaction buffer (Invitrogen, Cat. No. PV3189). The enzymatic reaction for compound testing was performed in a white 384-well polypropylene plate (Packard, Cat. No. 6005214) with a total reaction volume of 10 μL containing 440 ng/mL JAK1, 11 ng/mL JAK2, 400 ng/mL JAK3, or 200 ng/mL TYK2, 100 nM substrate, and 1 mM ATP. The assay started with loading 2.5 μL of JAK1, JAK2, JAK3, or TYK2 diluted in the kinase reaction buffer to wells, followed by addition of an equal volume of 4× compounds for 15-min incubation at room temperature for pre-treatment. The enzymatic reaction was initiated by addition of 5 μL of a mixture of the substrate and ATP prepared in the kinase reaction buffer. After one hour reaction, 10 μL mixture of EDTA (final 10 mM) and terbium-labeled anti-pSTAT1 (pTyr701) antibody (final 2 nM) (Invitrogen, Cat. No. PV4844) prepared in TR-FRET antibody dilution buffer (Invitrogen, Cat. No. PV3574) was added to stop the enzymatic reaction and produce TR-FRET signals. After 30 minutes of incubation at room temperature, the plate was read in Tecan Infinite F200 Pro with the following settings: Excitation 340 nm (30)/Emission1 495 nm (10)/Emission2 520 nm (25). The TR-FRET values were dimensionless numbers that were calculated as the ratio of the acceptor ([…]) signal to the donor (Terbium) signal. Percent of inhibition was calculated as (100%−percentage of compound-treated/DMSO vehicle-treated). The dose-response curves were generated and the IC50s were calculated by nonlinear sigmoid curve fitting using GraphPad Prism.
(§4) In Table 1, A represents a value no greater than 500 nM, B represents a value greater than 500 nM but no greater than 1 μM, C represents a value greater than 1 μM but no greater than 5 μM, and D represents a value greater than 5 μM. In Table 2, A′ represents a ratio of greater than 8, B′ represents a ratio of no greater than 8 but no less than 4, C′ represents a ratio of no greater than 4 but no less than 2, and D′ represents a ratio of no greater than 2. The selectivity is expressed as a ratio of the IC50 values of a compound against two kinases to be compared.

JAK1 = JAK1 (Homo sapiens (Human), UniProt P23458); test: Cellular JAK1 assay: IL-6-mediated STAT3 phosphorylation in TF-1 cells; type: cell-based; conditions: IL-6 stimulation, STAT3 phosphorylation at Tyr705 (AlphaLISA), read-out: Inhibitory Activity Against JAK1 IC50
Protocol: The cellular potency of a compound on JAK1 or JAK2 inhibition is determined by measuring the cytokine-mediated phosphorylation of STAT proteins in TF-1 cells.
Human cytokines of IL-6 (R&D Systems, Cat. No. 206-IL-010/CF) and GM-CSF (R&D Systems, Cat. No. 215-GM-010/CF) are reconstituted at 10 μg/mL in D-PBS containing 0.1% BSA (Sigma, Cat. No. A8577) and human EPO (R&D Systems, Cat. No. 287-TC-500) at 500 U/mL in D-PBS containing 0.1% BSA. TF-1 cells (ATCC, CRL-2003) were grown in RPMI1640 (ATCC, Cat. No. 30-2001) supplemented with 2 ng/mL of recombinant human GM-CSF, 10% FBS (Gibco, Cat. No. 10437-028), and 100 U/mL penicillin-streptomycin (Gibco, Cat. No. 15140-122). The cells were maintained and propagated between 1×10^5 cells/mL to 7.5×10^5 cells/mL. Aliquots of the cells from early passages were preserved for liquid nitrogen storage. Frozen vials of the cells were thawed at 37° C. water bath. The cells were spun to remove freezing medium. The newly revived frozen cells were adapted in culture for 5-7 days before used for compound testing. The cells used in for compound testing were less than 20 subculture passages or 3 months in culture.
To test compounds, the TF-1 cells were harvested at a density of 3 to 7×10^5 cells/mL by centrifugation. After removing the culture medium, the resulting cell pellet was suspended and washed once by centrifugation with HBSS buffer (Gibco, Cat. No. 14025-092) containing 0.1% BSA. The cell pellet was resuspended in HBSS buffer at 7.5×10^6 cells/mL. Four micro-liters of the cells (3×10^4 cells in total) were added to each well of a white 384-well plate (Packard, Cat. No. 6005214).
The compounds were first diluted in dimethylsulfoxide (DMSO) (Sigma, Cat. No. D2650) to generate 9 3-fold diluted dosing concentrations in a 96-well polypropylene plate (Corning, Cat. No. 3365), followed by addition of HBSS buffer for another 125-fold dilution. To the cells, 2 μL of the diluted compounds were added and mixed by tapping the plate several times. The cells were incubated for 2 hrs of treatment. DMSO was used as a control and similarly diluted along and added to the cells.
To assay JAK1 inhibition, 2 μL of IL-6 diluted at 400 ng/mL (4×) in HBSS containing 0.1% BSA was added to the treated cells. The cells were then incubated for 30 min of cytokine treatment and lysed at the end by addition of 2 μL of 5×AlphaLISA SureFire Ultra lysis buffer from Perkin Elmer. The plate was agitated on a plate shaker for 10 min at room temperature. The cellular JAK1 activity was determined by measuring STAT3 phosphorylation at Tyr705 in lysates using the AlphaLISA SureFire Ultra kit (Perkin Elmer, Cat. No. ALSU-PST3-A500). A volume of 5 μL of acceptor mix and donor mix was added sequentially to lysates following the product protocol. The assay signals were recorded on EnVision plate reader (Perkin Elmer) with AlphaScreen optics setting.
The results are summarized in Table 3, where A represents a value no greater than 500 nM, B represents a value greater than 500 nM but no greater than 1 μM, C represents a value greater than 1 μM but no greater than 5 μM, and D represents a value greater than 5 μM.

[2] = target: human Janus kinase 2 (JAK2), recombinant catalytic domain (Homo sapiens (Human), UniProt O60674); test: LanthaScreen TR-FRET enzymatic assay, JAK2; type: biochemical; conditions: for IC50: TR-FRET, 1 mM ATP, GFP-STAT1 substrate, read-out: Inhibitory Activity IC50 JAK2; for Selectivity JAK2/JAK1: ratio of IC50 against JAK2 over IC50 against JAK1
Protocol: as §1, §2, §3, §4

[3] = target: human tyrosine kinase 2 (TYK2), recombinant catalytic domain (Homo sapiens (Human), UniProt P29597); test: LanthaScreen TR-FRET enzymatic assay, TYK2; type: biochemical; conditions: TR-FRET, 1 mM ATP, GFP-STAT1 substrate; read-out: Inhibitory Activity IC50 TYK2
Protocol: as §1, §2, §3, §4

[4] = tested on: human tyrosine kinase 2 (TYK2), recombinant catalytic domain; test: LanthaScreen TR-FRET enzymatic assay, TYK2; type: biochemical; conditions: ratio of IC50 against TYK2 over IC50 against JAK1
Protocol: as §1, §2, §3, §4

[5] = target: human Janus kinase 3 (JAK3), recombinant catalytic domain (Homo sapiens (Human), UniProt P52333); test: LanthaScreen TR-FRET enzymatic assay, JAK3; type: biochemical; conditions: TR-FRET, 1 mM ATP, GFP-STAT1 substrate; read-out: Inhibitory Activity IC50 JAK3
Protocol: as §1, §2, §3, §4

[6] = tested on: human Janus kinase 3 (JAK3), recombinant catalytic domain; test: LanthaScreen TR-FRET enzymatic assay, JAK3; type: biochemical; conditions: ratio of IC50 against JAK3 over IC50 against JAK1
Protocol: as §1, §2, §3, §4

Sequence of human Janus kinase 2 (JAK2), recombinant catalytic domain (O60674 808-1132): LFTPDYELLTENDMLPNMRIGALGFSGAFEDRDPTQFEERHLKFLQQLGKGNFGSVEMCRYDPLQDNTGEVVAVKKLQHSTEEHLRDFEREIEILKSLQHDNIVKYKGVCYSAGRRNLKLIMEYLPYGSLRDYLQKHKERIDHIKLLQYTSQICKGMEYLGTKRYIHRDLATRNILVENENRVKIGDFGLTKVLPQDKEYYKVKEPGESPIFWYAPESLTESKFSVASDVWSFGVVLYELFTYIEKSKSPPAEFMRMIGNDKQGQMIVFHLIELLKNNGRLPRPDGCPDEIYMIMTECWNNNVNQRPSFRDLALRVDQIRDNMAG
Sequence of JAK1 (P23458 whole entry): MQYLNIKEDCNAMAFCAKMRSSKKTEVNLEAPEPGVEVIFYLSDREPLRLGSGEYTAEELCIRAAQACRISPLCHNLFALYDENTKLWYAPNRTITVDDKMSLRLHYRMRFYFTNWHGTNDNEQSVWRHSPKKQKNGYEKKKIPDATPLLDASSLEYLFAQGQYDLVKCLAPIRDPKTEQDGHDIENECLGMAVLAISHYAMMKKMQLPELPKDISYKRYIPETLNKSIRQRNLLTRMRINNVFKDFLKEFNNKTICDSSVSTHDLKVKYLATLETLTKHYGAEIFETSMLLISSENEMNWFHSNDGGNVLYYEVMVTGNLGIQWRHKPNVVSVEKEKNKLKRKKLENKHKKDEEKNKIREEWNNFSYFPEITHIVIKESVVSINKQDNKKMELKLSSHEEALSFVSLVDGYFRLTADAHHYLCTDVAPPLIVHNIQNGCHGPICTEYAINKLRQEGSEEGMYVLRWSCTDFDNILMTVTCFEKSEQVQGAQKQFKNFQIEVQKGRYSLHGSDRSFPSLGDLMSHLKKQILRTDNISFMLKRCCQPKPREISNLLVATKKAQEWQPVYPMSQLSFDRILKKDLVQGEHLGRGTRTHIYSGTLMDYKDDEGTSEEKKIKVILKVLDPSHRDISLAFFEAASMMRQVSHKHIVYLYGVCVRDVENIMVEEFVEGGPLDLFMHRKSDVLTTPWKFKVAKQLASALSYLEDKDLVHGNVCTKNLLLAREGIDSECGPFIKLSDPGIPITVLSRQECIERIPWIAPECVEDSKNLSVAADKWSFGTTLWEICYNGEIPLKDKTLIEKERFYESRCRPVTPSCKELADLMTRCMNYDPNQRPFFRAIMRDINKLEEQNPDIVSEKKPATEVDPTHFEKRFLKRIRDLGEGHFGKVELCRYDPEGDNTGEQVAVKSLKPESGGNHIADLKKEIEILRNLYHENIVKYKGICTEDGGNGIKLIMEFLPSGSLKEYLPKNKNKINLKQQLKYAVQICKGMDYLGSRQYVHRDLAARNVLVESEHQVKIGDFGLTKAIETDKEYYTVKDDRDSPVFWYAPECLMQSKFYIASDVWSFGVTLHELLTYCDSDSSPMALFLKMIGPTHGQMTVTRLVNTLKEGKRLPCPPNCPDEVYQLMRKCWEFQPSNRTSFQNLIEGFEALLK
Sequence of human tyrosine kinase 2 (TYK2), recombinant catalytic domain (Homo sapiens (Human), UniProt P29597) (P29597 833-1187): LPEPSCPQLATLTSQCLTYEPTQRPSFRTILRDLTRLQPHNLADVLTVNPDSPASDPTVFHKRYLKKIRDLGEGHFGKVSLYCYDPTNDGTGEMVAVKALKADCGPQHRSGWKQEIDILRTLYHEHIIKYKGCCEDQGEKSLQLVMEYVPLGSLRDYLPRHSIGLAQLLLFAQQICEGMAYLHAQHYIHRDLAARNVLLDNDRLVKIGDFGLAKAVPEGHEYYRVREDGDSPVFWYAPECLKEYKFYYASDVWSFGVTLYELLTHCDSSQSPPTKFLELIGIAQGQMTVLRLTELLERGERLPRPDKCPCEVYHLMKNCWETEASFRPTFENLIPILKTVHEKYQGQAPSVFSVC
Sequence of human Janus kinase 1 (JAK1), recombinant catalytic domain (P23458 866-1154): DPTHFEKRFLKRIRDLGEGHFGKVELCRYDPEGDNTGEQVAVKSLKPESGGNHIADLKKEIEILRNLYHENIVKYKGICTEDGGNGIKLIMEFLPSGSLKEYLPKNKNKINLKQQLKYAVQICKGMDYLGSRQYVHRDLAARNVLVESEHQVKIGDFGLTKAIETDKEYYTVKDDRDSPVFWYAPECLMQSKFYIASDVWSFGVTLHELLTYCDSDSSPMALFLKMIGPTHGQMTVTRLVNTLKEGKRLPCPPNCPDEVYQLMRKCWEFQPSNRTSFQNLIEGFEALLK
Sequence of human Janus kinase 3 (JAK3), recombinant catalytic domain (Homo sapiens (Human), UniProt P52333) (P52333 781-1124): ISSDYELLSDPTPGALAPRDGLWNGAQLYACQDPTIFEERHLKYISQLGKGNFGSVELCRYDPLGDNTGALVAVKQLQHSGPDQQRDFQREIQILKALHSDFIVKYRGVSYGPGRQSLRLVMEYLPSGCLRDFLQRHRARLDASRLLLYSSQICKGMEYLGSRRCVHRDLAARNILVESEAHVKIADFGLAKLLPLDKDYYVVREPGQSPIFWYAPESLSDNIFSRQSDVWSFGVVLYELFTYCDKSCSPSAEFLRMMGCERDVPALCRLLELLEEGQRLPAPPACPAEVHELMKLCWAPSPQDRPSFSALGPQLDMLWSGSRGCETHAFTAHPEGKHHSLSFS

| IC50 [1] [nM] | IC50 (JAK1) [nM] | IC50 [2] [nM] | IC50 [3] [nM] | IC50 [5] [nM] | Compound | Selectivity JAK2/JAK1 [2] | Selectivity TYK2/JAK1 [4] | Selectivity JAK3/JAK1 [6] |
| --- | --- | --- | --- | --- | --- | --- | --- | --- |
| ≤ 500 | ≤ 500 | 500 to 1000 | 500 to 1000 | > 5000 | O=C(Nc1cn2c(-c3ccc(CN4CCS(=O)(=O)CC4)c(F)c3)cccc2n1)C1CC1 [Compound 28] | A′ (A′ represents a ratio of greater than 8) | A′ (A′ represents a ratio of greater than 8) | A′ (A′ represents a ratio of greater than 8) |
| ≤ 500 | ≤ 500 | 500 to 1000 | ≤ 500 | > 5000 | O=C(Nc1cn2c(-c3ccc(NS(=O)(=O)C4CC4)cc3)cccc2n1)C1CC1 [Compound 30] | A′ (A′ represents a ratio of greater than 8) | B′ (B′ represents a ratio of no greater than 8 but no less than 4) | A′ (A′ represents a ratio of greater than 8) |

— patent publication US10730875B2, “Substituted imidazo[1,2-A]pyridin-2-ylamine compounds, and pharmaceutical compositions and methods of use thereof” (JN Therapeutics, priority 2015, dated 2020)
